Legend:
[1] = test system: Jurkat FADD-deficient cells (Jurkat FADD−/−); assay: Anti-necroptotic effect, Jurkat FADD-deficient cells, TNF, FACS of propidium iodide-stained nuclei; assay type: cell-based, human
Protocol: L929 cells, L929AsFas cells, Jurkat FADD-deficient cells (Jurkat FADD^−/−), U937 cells are pretreated for 1 h with increased concentrations of Sib (0, 5, 10, 20 μM) and then treated respectively with TNF-α (10 ng/ml)+zVAD (20 μM), FasL (200 ng/ml)+zVAD (20 μM), TNF-α (10 ng/ml), TRAIL (200 ng/ml)+zVAD (30 μM) or TRAIL (200 ng/ml)+zVAD (30 μM)+CHX (1 μg/ml). % of cell death is determined after 24 h and calculated by a FACS analysis of Propidium Iodide-stained nuclei. In each case, the EC50 is determined as well as the % of rescue from cell death.

[2] = test system: Jurkat FADD-deficient I 2.1 cell line; assay: Cell-based screening: TNF-α-induced necroptosis in Jurkat FADD-deficient cells, MTS viability assay; parameters: species or system human
Excerpt: TNF-α can induce necroptosis in Jurkat cells (human T lymphocytes) when FADD is deleted. This model was used to screen various libraries of chemical compounds for characterization of new inhibitors of cellular necroptosis. Details on this cell-based assay can be found in (Miao and Degterev, Methods Mol. Biol. 2009, 559, 79-93). The Jurkat FADD-deficient I 2.1 cell line used was purchased from ATCC and was maintained in RPMI 1640 medium (Gibco) containing Glutamax and 15% fetal calf serum (Life Technology). Necroptosis was induced by addition of 10 ng/ml of human recombinant TNF-α (Life Technology). Necrostatin-1 (Nec-1, Enzo Life Sciences) was used as model necroptosis inhibitor. Cells were maintained in 75 cm^2 flask and passed every 2 or 3 days. Chemical collections analysed were formatted in 96-well plates with 80 molecules per plates at 10 mM in 100% DMSO. For each collection plate, 2 cell plates were seeded (one necroptosis-induced with TNF-α and the other without TNF-α). Cells were seeded at 20000 cells/well, in 40 μl of medium, in a 96-well clear, flat bottom plate (CytoOne, Starlab) before treatment. Then, 40 μl of medium with or without TNF-α at 25 ng/ml were added to all wells in the corresponding plate. Immediately after TNF-α addition, 20 μl of diluted compound at 50 μM were added to the plates. Final concentration of each chemical compound was 10 μM at 0.1% DMSO. Four positives (Nec-1 at 10 μM final) and four negative (DMSO) controls were used in each plate to validate the assay. Cells were incubated at 37° C., 5% CO2 for 24 hours before performing MTS viability assay, described hereafter. Compounds were diluted before to treat cells. Liquid handling was performed using the Nimbus Microlab liquid handler (Hamilton Robotics) under microbiological safety workbench. The 10 mM compounds were diluted at 50 μM directly in cell medium.

[3] = test system: L929 cells; assay: Clonogenic assay (CA); assay type: cell-based; details: 10 μM for 24 hours with TNF-α (10 ng/ml)/z-VAD (20 μM); 15 days of culture
Protocol: This effect of Sibiriline on necroptosis was verified using clonogenic assay (CA). CA is an in vitro cell survival assay based on the ability of a single cell to grow into a colony.
L929 cells are treated by TNF-α (10 ng/ml)/z-VAD (20 μM) w/or w/o 10 μM Sib for 24 hours. After treatment, cells are seeded out in appropriate dilutions (here 5,000 cells per well) to form colonies in 2 weeks. Colonies are fixed with ice cold methanol and stained with crystal violet.

[4] = target: KIT(V559D) (Homo sapiens, UniProt P10721, V559D); assay: Competition binding assay for kinase targets of Sib (456 kinases); details: remaining kinase on the matrix after competition, read-out: Percent Control (%)
KIT(V559D), sequence (P10721 26-976 V559D): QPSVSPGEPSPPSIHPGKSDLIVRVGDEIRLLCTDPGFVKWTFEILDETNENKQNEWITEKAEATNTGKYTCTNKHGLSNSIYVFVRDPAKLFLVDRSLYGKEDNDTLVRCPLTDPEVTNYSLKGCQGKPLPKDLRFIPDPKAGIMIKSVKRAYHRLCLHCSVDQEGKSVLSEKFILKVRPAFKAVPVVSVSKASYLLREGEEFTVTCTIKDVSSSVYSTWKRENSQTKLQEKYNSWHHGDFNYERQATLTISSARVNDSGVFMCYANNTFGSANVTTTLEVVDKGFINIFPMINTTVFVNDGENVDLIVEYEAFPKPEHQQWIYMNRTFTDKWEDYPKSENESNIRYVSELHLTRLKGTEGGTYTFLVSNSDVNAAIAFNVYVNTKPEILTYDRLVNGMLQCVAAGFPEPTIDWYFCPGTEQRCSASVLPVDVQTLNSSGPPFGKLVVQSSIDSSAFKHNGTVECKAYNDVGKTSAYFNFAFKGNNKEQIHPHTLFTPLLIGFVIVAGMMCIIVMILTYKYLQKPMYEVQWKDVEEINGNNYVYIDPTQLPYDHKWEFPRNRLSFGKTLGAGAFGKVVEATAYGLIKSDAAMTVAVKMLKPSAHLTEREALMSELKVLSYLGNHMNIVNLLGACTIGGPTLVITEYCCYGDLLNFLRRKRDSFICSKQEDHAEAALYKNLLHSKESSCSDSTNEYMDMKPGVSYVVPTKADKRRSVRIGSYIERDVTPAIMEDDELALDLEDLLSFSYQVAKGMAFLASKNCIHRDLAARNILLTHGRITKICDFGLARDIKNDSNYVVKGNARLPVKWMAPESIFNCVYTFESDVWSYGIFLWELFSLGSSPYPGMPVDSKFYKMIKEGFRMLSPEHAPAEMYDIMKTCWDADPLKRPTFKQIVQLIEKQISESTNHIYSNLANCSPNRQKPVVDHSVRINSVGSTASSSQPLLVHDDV
Protocol: (§1) The assay is performed by combining three components: DNA-tagged kinase (a total of 456 kinases were tested); immobilized ligand; and a test compound (here Sib). The ability of Sib to compete with the immobilized ligand is measured via quantitative PCR of the DNA tag.

[5] = target: T1, RIPK1 (Homo sapiens, UniProt Q13546); assay: as above; details: remaining kinase on the matrix after competition, read-out: Percent Control (%)
T1 construct: purchased DiscoveRx Corporation (KdELECT service)
T1 sequence (Q13546 1-671): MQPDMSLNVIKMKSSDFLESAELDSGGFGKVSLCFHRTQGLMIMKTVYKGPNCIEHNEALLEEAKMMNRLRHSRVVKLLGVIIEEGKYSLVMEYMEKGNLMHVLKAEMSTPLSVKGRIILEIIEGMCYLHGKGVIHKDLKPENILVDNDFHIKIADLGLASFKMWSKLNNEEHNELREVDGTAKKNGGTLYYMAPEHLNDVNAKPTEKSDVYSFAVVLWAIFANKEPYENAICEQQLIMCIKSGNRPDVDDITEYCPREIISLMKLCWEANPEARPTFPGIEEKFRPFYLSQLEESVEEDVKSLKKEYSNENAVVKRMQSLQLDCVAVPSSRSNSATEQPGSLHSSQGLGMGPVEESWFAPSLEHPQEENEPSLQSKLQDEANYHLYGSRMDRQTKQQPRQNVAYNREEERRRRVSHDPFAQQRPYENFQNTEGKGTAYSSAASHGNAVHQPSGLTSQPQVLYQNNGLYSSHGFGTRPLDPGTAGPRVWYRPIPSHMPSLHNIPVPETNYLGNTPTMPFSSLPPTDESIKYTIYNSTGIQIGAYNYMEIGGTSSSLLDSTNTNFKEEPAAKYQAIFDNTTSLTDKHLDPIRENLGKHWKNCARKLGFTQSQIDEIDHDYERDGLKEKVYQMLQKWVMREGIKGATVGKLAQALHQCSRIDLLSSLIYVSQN
Protocol: as §1

[6] = target: PDGFRB (Homo sapiens, UniProt P09619); assay: as above; details: remaining kinase on the matrix after competition, read-out: Percent Control (%)
PDGFRB, sequence (P09619 33-1106): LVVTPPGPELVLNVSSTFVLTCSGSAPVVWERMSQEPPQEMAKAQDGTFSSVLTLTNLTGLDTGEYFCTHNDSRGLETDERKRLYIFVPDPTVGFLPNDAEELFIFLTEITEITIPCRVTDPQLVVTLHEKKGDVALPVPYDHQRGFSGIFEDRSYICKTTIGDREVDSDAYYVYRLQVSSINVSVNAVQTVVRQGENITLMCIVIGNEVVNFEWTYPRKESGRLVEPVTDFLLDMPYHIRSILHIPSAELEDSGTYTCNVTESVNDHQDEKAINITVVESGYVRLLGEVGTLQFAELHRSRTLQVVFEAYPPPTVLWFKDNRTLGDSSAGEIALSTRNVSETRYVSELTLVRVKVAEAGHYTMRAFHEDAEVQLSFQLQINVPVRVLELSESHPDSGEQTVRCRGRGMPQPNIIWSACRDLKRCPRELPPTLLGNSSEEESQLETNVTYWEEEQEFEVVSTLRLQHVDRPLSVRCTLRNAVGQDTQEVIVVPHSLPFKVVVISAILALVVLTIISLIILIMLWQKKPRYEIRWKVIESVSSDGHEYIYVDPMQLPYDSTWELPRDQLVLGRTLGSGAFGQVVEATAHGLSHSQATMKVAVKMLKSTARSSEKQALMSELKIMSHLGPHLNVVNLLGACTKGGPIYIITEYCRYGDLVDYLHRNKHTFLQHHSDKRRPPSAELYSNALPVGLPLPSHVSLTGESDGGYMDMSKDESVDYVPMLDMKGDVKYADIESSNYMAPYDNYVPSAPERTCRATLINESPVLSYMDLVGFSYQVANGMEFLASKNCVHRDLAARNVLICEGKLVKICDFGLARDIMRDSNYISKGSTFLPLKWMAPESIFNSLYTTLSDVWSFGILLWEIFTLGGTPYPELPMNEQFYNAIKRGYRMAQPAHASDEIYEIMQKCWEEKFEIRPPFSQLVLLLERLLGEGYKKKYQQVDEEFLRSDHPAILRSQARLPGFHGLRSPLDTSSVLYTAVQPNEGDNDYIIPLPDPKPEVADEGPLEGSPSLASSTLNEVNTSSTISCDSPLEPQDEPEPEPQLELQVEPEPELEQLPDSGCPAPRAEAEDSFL
Protocol: as §1

remaining binding at 10 µM [4]: 0.4% | remaining binding at 10 µM [5]: 0.2% | remaining binding at 10 µM [6]: 0.75%
Compound: Oc1ccc(-c2cc3cccnc3[nH]2)cc1 [compound 2, 4-(1H-pyrrolo[2,3-b]pyridin-2-yl)phenol]
EC50 ([1]; Homo sapiens, 1 h pretreatment, cell death after 24 h): 1.2 µM | % Rescue ([1]; rescue from cell death, 24 h): 90% | EC50 ([2]; Homo sapiens, Jurkat, necroptosis induced by 10 ng/ml TNF-α, 24 hours, MTS viability): 1.3 µM | inhibition of necroptosis induced by TNF-α (figure legend) ([2]; human T lymphocyte, Jurkat FADD deficient cell line): dose-dependent inhibition | cell colonies (cellular growth) after treatment [3]: can restore the cellular growth and protect cells from death
